# From PMC4179164, “Ophiobolin A from Bipolaris oryzae Perturbs Motility and Membrane Integrities of Porcine Sperm and Induces Cell Death on Mammalian Somatic Cell Lines” (Toxins, 2014)
# Like-named read-outs stand apart in the source and are kept apart here.
# How the values were obtained:
# [1] = tested on: boar spermatozoa; experiment: Sperm motility inhibition assay (progressive and rapid motility); format: cell-based
# Procedure: Furthermore, their physiological characters including their motility are influenced mainly by membrane potentials and ion fluxes. Thus, the change of sperm motility is able to sensitively indicate the substances causing mitochondrial membrane depolarization even at sublethal doses, which is undetectable with other cell lines. Motility of the spermatozoa was judged after exposure of 30 min and 24 h at room temperature with minor modification of a previously described method.
# The sperm motility inhibition assay was done as reported by Andersson et al.. Commercial boar semen obtained from Figen Oy Finland extended in MR-A (Kubus, S.A., Madrid, Spain) containing 27 × 10^6 spermatozoa·mL^−1 was used. The purified OPA was diluted by serial dilutions in methanol obtaining two ranges of concentrations with 4-4 levels from 2500 μg mL^−1 to 250.0 μg mL^−1 and from 50 μg mL^−1 to 5.0 μg mL^−1, for short and long time exposures, respectively. Twenty μL of each dilution was administered to 2 mL of MR-A-diluted boar semen resulting approximately 100 times dilution of the original stock solutions; 20 μL of methanol was added to spermatozoa in the same way as a blank assay. The samples were incubated for 30 min and 24 h at room temperature for short and long term exposure assays, respectively. After exposure, motility was induced in the sperm cells by incubation in 37 °C for 5 min and shaking to provide the sperm cells with oxygen. […]
# The above described subjective motility assay was calibrated with an automatic Hamilton Thorne sperm motility analyzer (HTM-S, ver. 7.2; Hamilton-Thorn Research, Danvers, MA, USA). […] Thus the protocol for assessing sperm tail beating as a measure of motility inhibition gave 99% similarity to measurements of the proportion of rapidly motile spermatozoa done with Hamilton Thorne sperm analyzer (HTM-S, ver. 7.2; Hamilton-Thorn Research, Danvers, MA, USA) Toxicity was expressed as the endpoint concentration of the OPA solution, where the progressive and rapid motility of the sperm cells were <50% of the vehicle exposed sperm cells. […]
# [2] = tested on: L1210 cell line; details: cited from earlier work
# [3] = tested on: human umbilical vein endothelial cells (HUVECs); details: cited from earlier work
# [4] = Somatic cell toxicity assay (resazurin reduction), PK-15; format: cell-based, porcine; details: pig, PK-15 cells (porcine kidney tubular epithelial cell line); read-out: Toxic endpoint EC50, Cytotoxicity, PK-15 cells
# Procedure: (§1) Viability assays, based on resazurin-resorufin transformation, represent excellent correlation to generally used reference assays, such as formazan- and tritiated thymidine based methods. In our experiments, proliferating murine neuroblastoma (MNA), feline fetus lung (FFL) and porcine kidney (PK-15) cells were treated with OPA. […] These values were remarkably less than the concentrations causing sperm toxicity and motility inhibition.
# (§2) Cytotoxicity against somatic cells was tested with feline fetus lung cells (FFL) cultivated as described by Andersson et al. and murine neuroblastoma cells (MNA) as described by Kulonen et al. as well as porcine kidney tubular epithelial cell line (PK-15), cultured as reported earlier. All somatic cell lines were maintained in an atmosphere of 95% air, 5% CO2 and 95% relative humidity at 37 °C on RPMI 1640 (complete medium) in a cell culture cabinet (Heracell 150i; Thermo Fisher Scientific, Vantaa, Finland). The detached cells were seeded onto 96 well microtiter plates and exposed to the purified OPA, the final concentration of which ranged from 48.8 ng mL^−1 to 25 μg mL^−1 containing 10 levels in methanol. […] Then, the plates were analyzed by a microtiter plate reader (Fluoroskan Ascent, Thermo Scientific, Vantaa, Finland) at the excitation and emission wavelengths of 544 nm and 590 nm, respectively. […]
# [5] = tested on: porcine kidney (PK-15) cells; experiment: as above; format: cell-based; details: Sus scrofa; PK-15 cells, resazurin; read-out: IC50, cell proliferation
# Procedure: as §1, §2
# [6] = tested on: murine neuroblastoma (MNA) cells; experiment: Somatic cell toxicity assay (resazurin reduction), MNA; format: cell-based; details: Mus musculus, read-out: IC50, cell proliferation
# Procedure: as §1, §2
smiles,measurement,setting,value
"CC(C)=C[C@H]1C[C@H](C)[C@]2(CC[C@]3(C)C[C@H]4[C@H](C(=O)C[C@@]4(C)O)/C(C=O)=C\C[C@H]32)O1 [OPA, ophiobolin A]",EC50,"[1]; 0.5 h, boar spermatozoa, 30 min exposure at room temperature, read-out: Toxic endpoint EC50, Motility inhibition (30 min)",≤ 2.5 µg/mL
same,EC50,"[1]; 24 h, read-out: Toxic endpoint EC50, Motility inhibition (24 h), boar spermatozoa, 24 h exposure at room temperature",0.25 µg/mL
same,"IC50, induced cell death",[2],120 µg/mL
same,"IC50, reduction in the amount of viable cells",[3],32 µg/mL
same,EC50 at 3 days,[4],0.1 µg/mL
same,IC50,[5],0.0488 to 0.0976 µg/mL
same,IC50,[6],< 0.0488 µg/mL
